Reference: patent publication US20080227638A1, “Use of abscisic acid to enhance growth control” (priority 2007, published 2008)

Key:
Format in all cases: in vivo
creeping bentgrass = assay: Golf course green creeping bentgrass height, ABA and trinexapac-ethyl (Example 4); conditions: 200 ppm ABA
Experimental: (§1) Field studies were conducted at the nursery green or the practice green at Countryside golf course (Mundelein, Ill.). Both greens were sand based and growing Penncross creeping bentgrass. Grass was managed with typical Illinois golf course management practices.
(§2) Chemical solutions were prepared with distilled water. Tween 20 (0.05% v/v) was used as an, adjuvant. Both trinexapac-ethyl (commercial product Primo Maxx, 11.3% active ingredient) and paclobutrazol (commercial product Trimmit 2SC, 22.3% active ingredient) were purchased from Syngenta Crop Protection Inc. (Greensboro, N.C.). Uniconazole-P (commercial product Sumagic, 0.55% active ingredient) was obtained from Valent U.S.A. Corporation (Walnut Creek, Calif.).
(§3) When treated with paclobutrazol or uniconazole-P, turfgrass received irrigation within 24 hours after application to flush chemicals to the root zone. After treatment, turfgrasses were arranged in a randomized complete block experimental design. Turfgrass quality, turfgrass height or clip fresh weight was measured on assigned dates. Turfgrass quality was visually rated on a 0-9 scale based on the color, uniformity and density of the grass with 0 as the worst and 9 as the best. Turfgrass height was measured as the distance between canopy surface and soil. Clips were collected from each plot; all plots were cut to a uniform height.
(§4) All experiments were randomized complete block experimental design. Data were analyzed by analysis of variance. Duncan's new multiple range tests at α=0.05 were used for mean separations.
(§5) Tween 20 (0.05% w/v) was included as an adjuvant.

[1] = tested on: tomato (variety: Rutgers); assay: Tomato leaf transpiration, porometer (Example 9)
Source text: (§6) Tomato (variety: Rutgers) seeds were sown in 18-cell flat filled with Promix PGX (available from Premier Horticulture Inc. Quakertown, Pa.) and grown for 3 weeks to allow for germination and initial growth. Plants were then transplanted into pots (18 cm in diameter and 18 cm in height), filled with Promix BX (available from Premier Horticulture Inc. Quakertown, Pa.), and grown for one week before the chemical treatment. Plants received daily irrigation and weekly fertilizer (1 g/L all purpose fertilizer 20-20-20, available from The Scotts Company, Marysville, Ohio).
(§7) During the chemical treatment, a 15 mL (2.5 mL/plant) solution was foliar sprayed on the tomato canopy. Leaf transpiration rates were measured using a LI-1600 Steady State Porometer (LI-Cor, Lincoln, Nebr.) at 1, 2, 3, 4, 7, 10 and 15 days after treatment. Leaf transpiration rate was normalized to the percentage of control plant to minimize the experimental errors caused by environmental factors. Plant height was measured at 0, 2, 4, 7, 10 and 15 days after treatment. Growth rate was calculated based on the changes of plant height in certain intervals. The plants were harvested and the leaf number was counted at 15 days after treatment.

creeping bentgrass green = assay: Soil moisture of creeping bentgrass green, ABA and trinexapac-ethyl (Example 8); conditions: 500 ppm ABA
Experimental: as §1, §2, §3, §4, §5

Kentucky bluegrass = assay: Greenhouse Kentucky bluegrass height and quality, ABA and trinexapac-ethyl (Example 1); conditions: 200 ppm ABA
Experimental: Greenhouse studies were conducted at the Research Farm of Valent BioSciences Corporation (Long Grove, Ill.). Grasses were grown in pots (18 cm in diameter and 18 cm in height) filled with Promix BX (available from Premier Horticulture Inc. Quakertown, Pa.). Grass was irrigated daily by an overhead irrigation system. The irrigation system was set up with multiple Tornado Mist Spray Heads (10 GPH at 40 PSI-Wetted diameter, NDS/Raindrip, Woodland Hills, Calif.). Spray heads were 1-meter apart from each other and 75 cm above grass canopy. Grass was cut with a scissor at 2.5 cm height and fertilizer (1 g/L all purpose fertilizer 20-20-20, available from The Scotts Company, Marysville, Ohio) was applied once per week.
as §2, §3, §4
Kentucky bluegrass sod (unknown variety) was purchased from Deak sod farms, Inc. (Union Grove, Wis.). Grass was grown in the greenhouse in pots (n=6 pots per treatment) for establishment before treatment. […] Tween 20 (0.05% w/v) was included as an adjuvant. Turfgrass canopy was not cut during the experimental period.

[2] = tested on: tomato (variety: Rutgers); assay: Tomato plant height, growth rate and leaf number (Example 9); conditions: for Leaf number: 15 days after treatment
Source text: as §6, §7

[3] = 250 ppm ABA, day 2 after treatment
[4] = 250 ppm ABA, day 4 after treatment
[5] = 250 ppm ABA, day 7 after treatment
[6] = 250 ppm ABA, day 10 after treatment
[7] = 250 ppm ABA, day 15 after treatment
[8] = 500 ppm ABA, day 2 after treatment
[9] = 500 ppm ABA, day 4 after treatment
[10] = 500 ppm ABA, day 7 after treatment
[11] = 500 ppm ABA, day 10 after treatment
[12] = 500 ppm ABA, day 15 after treatment
[13] = 1000 ppm ABA, day 2 after treatment
[14] = 1000 ppm ABA, day 4 after treatment
[15] = 1000 ppm ABA, day 7 after treatment
[16] = 1000 ppm ABA, day 10 after treatment
[17] = 1000 ppm ABA, day 15 after treatment
[18] = 2000 ppm ABA, day 2 after treatment
[19] = 2000 ppm ABA, day 4 after treatment
[20] = 2000 ppm ABA, day 7 after treatment
[21] = 2000 ppm ABA, day 10 after treatment
[22] = 2000 ppm ABA, day 15 after treatment

In the case of S-abscisic acid [ABA], the Turfgrass height (creeping bentgrass; 7 days after treatment) is reported as 5.3 cm, the Turfgrass height (creeping bentgrass; 14 days after treatment) is reported as 8.2 cm and the Transpiration ([1]; 250 ppm ABA, day 1 after treatment) is reported as 87 % of control. For the same substance, the Transpiration [1, 3] was 86 % of control, the Transpiration ([1]; 250 ppm ABA, day 3 after treatment) was 91 % of control and the Transpiration [1, 4] was 95 % of control. For the same substance, the Transpiration [1, 5] was 99 % of control, the Transpiration [1, 6] was 98 % of control and the Transpiration [1, 7] was 99 % of control. For the same substance, the Transpiration ([1]; 500 ppm ABA, day 1 after treatment) was 78 % of control, the Transpiration [1, 8] was 78 % of control and the Transpiration ([1]; 500 ppm ABA, day 3 after treatment) was 84 % of control. The Transpiration [1, 9] was 88 % of control, the Transpiration [1, 10] was 98 % of control and the Transpiration [1, 11] was 99 % of control. The Transpiration [1, 12] was 99 % of control, the Transpiration ([1]; 1000 ppm ABA, day 1 after treatment) was 60 % of control and the Transpiration [1, 13] was 73 % of control. The Transpiration ([1]; 1000 ppm ABA, day 3 after treatment) was 76 % of control, the Transpiration [1, 14] was 84 % of control and the Transpiration [1, 15] was 93 % of control. For the same substance, the Transpiration [1, 16] was 99 % of control, the Transpiration [1, 17] was 97 % of control and the Transpiration ([1]; 2000 ppm ABA, day 1 after treatment) was 46 % of control. For the same substance, the Transpiration [1, 18] was 58 % of control, the Transpiration ([1]; 2000 ppm ABA, day 3 after treatment) was 70 % of control and the Transpiration [1, 19] was 76 % of control. The Transpiration [1, 20] was 85 % of control, the Transpiration [1, 21] was 95 % of control and the Transpiration [1, 22] was 100 % of control. The Soil moisture (creeping bentgrass green; 2 days after treatment) was 11.4%, the Soil moisture (creeping bentgrass green; 7 days after treatment) was 10.9% and the Turfgrass height (Kentucky bluegrass; 7 days after treatment) was 9.4 cm. For the same substance, the Turfgrass height (Kentucky bluegrass; 23 days after treatment) was 19.0 cm, the Leaf number ([2]; 250 ppm ABA) was 12.2 and the Plant height ([2]; 250 ppm ABA, day 0 after treatment) was 9.9 cm. The Growth rate [2, 3] was 1.5 cm/day, the Plant height [2, 3] was 12.8 cm and the Growth rate [2, 4] was 1.6 cm/day. The Plant height [2, 4] was 16.3 cm, the Growth rate [2, 5] was 2.7 cm/day and the Plant height [2, 5] was 28.5 cm. For the same substance, the Growth rate [2, 6] was 2.1 cm/day, the Plant height [2, 6] was 30.4 cm and the Growth rate [2, 7] was 2.3 cm/day. The Plant height [2, 7] was 45.5 cm, the Leaf number ([2]; 500 ppm ABA) was 12.0 and the Plant height ([2]; 500 ppm ABA, day 0 after treatment) was 10.1 cm. For the same substance, the Growth rate [2, 8] was 1.3 cm/day, the Plant height [2, 8] was 12.5 cm and the Growth rate [2, 9] was 1.6 cm/day. The Plant height [2, 9] was 16.3 cm, the Growth rate [2, 10] was 2.4 cm/day and the Plant height [2, 10] was 27.0 cm. For the same substance, the Growth rate [2, 11] was 2.0 cm/day, the Plant height [2, 11] was 29.6 cm and the Growth rate [2, 12] was 2.3 cm/day. For the same substance, the Plant height [2, 12] was 44.1 cm, the Leaf number ([2]; 1000 ppm ABA) was 12.0 and the Plant height ([2]; 1000 ppm ABA, day 0 after treatment) was 9.8 cm. For the same substance, the Growth rate [2, 13] was 1.0 cm/day, the Plant height [2, 13] was 11.7 cm and the Growth rate [2, 14] was 1.2 cm/day. For the same substance, the Plant height [2, 14] was 14.5 cm, the Growth rate [2, 15] was 2.2 cm/day and the Plant height [2, 15] was 25.3 cm. It also gave a Growth rate [2, 16] of 1.8 cm/day, a Plant height [2, 16] of 27.4 cm and a Growth rate [2, 17] of 2.0 cm/day. The Plant height [2, 17] was 41.6 cm, the Leaf number ([2]; 2000 ppm ABA) was 12.0 and the Plant height ([2]; 2000 ppm ABA, day 0 after treatment) was 9.8 cm. For the same substance, the Growth rate [2, 18] was 0.9 cm/day, the Plant height [2, 18] was 11.5 cm and the Growth rate [2, 19] was 1.3 cm/day. For the same substance, the Plant height [2, 19] was 14.9 cm, the Growth rate [2, 20] was 1.9 cm/day and the Plant height [2, 20] was 23.2 cm. For the same substance, the Growth rate [2, 21] was 1.6 cm/day, the Plant height [2, 21] was 25.8 cm and the Growth rate [2, 22] was 1.9 cm/day. The Plant height [2, 22] was 40.5 cm.
